Results taken from US6087121A, “Chemiluminescent detection of heme proteins in biological samples” (Mayo Foundation for Medical Education and Research, priority 1999, dated 2000).
“Also recorded” adds a separate entry of the source. Read-outs that look alike come from different tables or passages of the source.

Legend:
Hb [1] = assay: S/N ratios of different chemiluminescent substrates with Hb; format: biochemical, human; details: signal integrated over first five seconds
Protocol: (§1) Centricon ultrafiltration filters were obtained from Amicon (Daven, Mass.). Polystyrene tubes (5.0 mL volume, 75×12 mm) used for the assay were manufactured by Sarstedt (Arlington Heights, Ill.). The chemiluminescent substrate, 7-dimethylamino-naphthalene-1,2-dicarbonic acid-hydrazide (7-DNH) was purchased from Boehringer Mannheim (Indianapolis, Ind.). PS-1 acridan substrate (solution A and solution B) was obtained from Lumigen Inc. (Southfield, Mich.). […] Tween-20 and Sodium Chloride were purchased from Fisher Scientific (Fair Lawn, N.J.). General laboratory chemicals such as, boric acid, sodium acetate, Trizma base, HEPES, hydrogen peroxide (H2 O2) solution (30.0%), human hemoglobin, catalase, 6-amino-2,3-dihydro-1,4-phthallazinedione (4-aminophthalhydrazide), N-(4-Aminobutyl)-N-ethyl-isoluminol, Triton X-100, (3-[3-cholamidopropyl)dimethylammonio]-1-propanesulfonate) (CHAPS), hydrogen disulfite, methimazole, ofloxacin, ascorbic acid, ammonium chloride, EDTA, Hb, bilirubin, and lactoperoxidase (LPO) were purchased from Sigma Chemical Company (St. Louis, Mo.). Human heart myoglobin and myeloperoxidase were obtained from Calbiochem (La Jolla, Calif.) Thyroid peroxidase (TPO) was purchased from O.E.M. Concepts, Inc. (Toms River, N.J.). Eosinophil peroxidase was provided by Dr. Greipp (Mayo Clinic). Fresh EDTA anticoagulated blood was collected from donors showing no signs of sickness and washed with physiological saline to isolate RBC.
(§2) Fresh urine specimens were obtained in routine commercial collection vessels. The specimens were, either, analyzed immediately or stored at 4° C. until analysis. The urine samples were prepared for analysis by adding CTAC to produce a 0.1% solution, unless otherwise noted, in order to lyse the erythrocytes, thereby releasing hemoglobin. The assays were performed in a 75×12 mm polystyrene tube. The assay solutions were prepared by adding to each tube 294 μL of high ionic strength buffer, 5.0 μL of the prepared urine samples or standards, and […] of substrate (0.4 mM solution of 7-DNH), unless otherwise noted. […] The standard curve was obtained by plotting chemiluminescence emission in Relative Light Units (RLU) versus Hb concentration (μg/mL) or number of RBCs (#RBC/high power field (hpf)). Cell counts were determined with the Yellow Iris® instrument and confirmed by a manual hemocytometer count.
(§3) The substrate (7-DNH) and the ultrafiltered urine were prepared as described above. The kinetics of chemiluminescence was determined by monitoring the chemiluminescence signal over a 20 second time period following addition of the substrate (7-DNH) to ultrafiltered urine. Measurements were performed either in the presence or absence of Hb. Experiments performed in the absence of Hb provide background measurements in relative light units (RLU).

Mb = assay: S/N ratios of different chemiluminescent substrates with Mb; format: biochemical, human; details: signal integrated over first five seconds
Protocol: as §1, §2
as §3, with “Experiments performed in the absence of Hb provide background measurements in relative light units (RLU).” left out

MPO [2] = target: T1, MPO (Homo sapiens, UniProt P05164); assay: Drug interferences with MPO (PS-1 assay in urine); format: biochemical; details: for inhibition at 0.001 µg/mL: 1 ng/mL
T1 sequence (P05164 49-745): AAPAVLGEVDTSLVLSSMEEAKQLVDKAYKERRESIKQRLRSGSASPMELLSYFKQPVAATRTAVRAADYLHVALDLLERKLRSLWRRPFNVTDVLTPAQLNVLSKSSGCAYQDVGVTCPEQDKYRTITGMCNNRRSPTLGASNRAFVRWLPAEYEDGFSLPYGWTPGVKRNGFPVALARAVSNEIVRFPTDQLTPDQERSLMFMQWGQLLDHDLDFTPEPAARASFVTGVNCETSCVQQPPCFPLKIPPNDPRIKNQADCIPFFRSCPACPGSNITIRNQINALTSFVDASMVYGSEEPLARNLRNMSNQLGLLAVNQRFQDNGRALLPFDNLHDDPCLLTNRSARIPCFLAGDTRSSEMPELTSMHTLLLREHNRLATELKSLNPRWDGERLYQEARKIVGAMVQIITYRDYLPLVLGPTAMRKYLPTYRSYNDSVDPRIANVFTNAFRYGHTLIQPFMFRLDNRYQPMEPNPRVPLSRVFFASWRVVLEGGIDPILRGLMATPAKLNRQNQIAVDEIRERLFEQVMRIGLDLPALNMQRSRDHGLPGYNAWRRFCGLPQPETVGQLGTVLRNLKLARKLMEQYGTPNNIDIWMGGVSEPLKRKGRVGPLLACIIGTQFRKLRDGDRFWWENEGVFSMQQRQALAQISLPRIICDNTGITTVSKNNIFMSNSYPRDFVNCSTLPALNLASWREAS
Protocol: (§4) Urine samples were diluted 1:4 into distilled water to minimize inhibitory effects observed with hyperosmolal urines. Two μL of diluted urine were added to 12×75 mm polystyrene test tube containing 50 μL of the PS-1 solution. The tubes were incubated at 37° C. for 5 minutes. MPO activity was determined by chemiluminescence emission using a Turner TD-20e luminometer maintained at 37° C. Leukocyte counting was performed manually by using a hemacytometer chamber (Kova Glasstic slide, Hycor, Irvine, Calif.) on each urine sample to determine the number of cells/mL.
Several possible interfering substances were added to urine and tested for inhibitory effects. Several common medications were also tested for potential inhibitory effects.

Hb [3] = assay: Interference studies in Hb assay (7-DNH chemiluminescence); format: biochemical, human; details: for Level of Interference (in words): highest conc: ascorbic acid 10, bilirubin 10, Cu++/Mn++ 40, sodium azide 500 μg/mL, uric acid 1 mg/mL; for Level of Interference: level producing a signal equivalent to 3 RBC per high power field, fixed Hb concentration
Protocol: Numerous potential interfering substances, which either enhance or quench the signal generated by cyclic hydrazides, were evaluated. The effects of these potentially interfering substances on light emission was investigated at varying concentrations of the interfering composition. Assays were performed using serial dilutions of the potential interfering compositions in ultrafiltered urine at a fixed concentration of Hb. Comparisons of chemiluminescence emission were made between a reference solution (Hb in ultrafiltered urine) without added interfering compositions and solutions with added interferant.
Generally, the value of 3 RBC per high power field is the normal cutoff point.
Bilirubin and uric acid were examined as a possible negative interfering compositions because of their chemical structure which may quench energy emitted.

MPO [4] = target: T1, MPO; assay: Effects of potential interfering substances in WBC (MPO, PS-1) assay; format: biochemical; details: highest tested: uric acid 1 mg/mL, ascorbic acid 100 μg/mL, bilirubin 50 μg/mL, trolox 1 mg/mL
Protocol: as §4
Several possible interfering substances were added to urine and tested for inhibitory effects. Several common medications were also tested for potential inhibitory effects. […] Hb at concentrations of >10 μg/mL and Mb at concentrations >2 μg/mL were detected by the PS-1 substrate as the chemiluminescence emission was above the normal urine background. Samples grossly populated with bacteria caused slight inhibition of the MPO activity. Urine samples may contain many epithelial cells, casts, crystals, and numerous artifacts but none of these appear to interfere with the chemiluminescence emission from MPO.

Hb [5] = assay: Effects of detergents on chemiluminescence emission in Hb assay; format: biochemical, human
Protocol: Increasing concentrations of Hb were assayed with equal concentrations of different detergents to assess the effectiveness of the detergents at enhancing chemiluminescence emission. The effectiveness of the detergents was also compared at different time periods and varying concentrations. The ultrafiltered urine was assumed to contain neither Hb nor Mb and was used as the blank to assess background chemiluminescence emission with the substrate.

For `CCN(CCCCN)c1ccc2c(=O)[nH][nH]c(=O)c2c1` [ABEI, N-(4-Aminobutyl)-N-ethyl-isoluminol], the “S/N for Hb” value (Hb [1]) was 3 and the “S/N for Mb” value (Mb) was 6.

For `Cn1c(=O)c2[nH]cnc2n(C)c1=O` [Aminophyllin], the “% Inhibition of MPO” value (MPO [2]; 100 μg/mL) was 4%.

In the case of `CN(C)CCC=C1c2ccccc2CCc2ccccc21` [Amitriptylene], the inhibition at 100 µg/mL (MPO [2]; 100 μg/mL, read-out: % Inhibition of MPO) is reported as 75%.

In the case of `O=C1O[C@H]([C@@H](O)CO)C(O)=C1O` [Ascorbic Acid, ascorbic acid], the “Level of Interference (in words)” value (Hb [3]) is reported as “None”, the “Level of Interference (in words)” value (Hb [3]; listed as ascorbic acid) is reported as “did not interfere; also recorded: did not have an inhibitory effect on the reaction” and the “Interference (in words)” value (MPO [4]) is reported as “None”. The “Interference (in words)” value (MPO [4]; listed as ascorbic acid) was “did not affect assay performance”.

In the case of `C=CC1=C(C)/C(=C/c2[nH]c(Cc3[nH]c(/C=C4\NC(=O)C(C)=C4C=C)c(C)c3CCC(=O)O)c(CCC(=O)O)c2C)NC1=O` [Bilirubin, bilirubin], the “Level of Interference (in words)” value (Hb [3]) is reported as “None”, the “Level of Interference (in words)” value (Hb [3]; listed as bilirubin) is reported as “did not interfere” and the “Interference (in words)” value (MPO [4]) is reported as “None”. For the same molecule, the “Interference (in words)” value (MPO [4]; listed as bilirubin) was “did not affect assay performance”.

`CCCCCCCCCCCCCCCC[N+](C)(C)C.[Cl-]` [CTAC, cetyltrimethyl-ammonium chloride] was tested, and the “enhancement of chemiluminescence signal” value (Hb [5]; 7-DNH, various Hb concentrations) was “highest chemiluminescence signal” and the “optimal concentration for enhancement of signal” value (Hb [5]; dose-dependent enhancement, FIG. 4B) was 0.1%.

Molecule `C[C@]12CC[C@@H]3c4ccc(O)cc4CC[C@H]3[C@@H]1CC[C@@H]2O` [Estradiol] has an inhibition at 0.001 µg/mL (MPO [2]) of 20%.

Molecule `C[C@]12CC[C@@H]3c4ccc(O)cc4CC[C@H]3[C@@H]1C[C@@H](O)[C@@H]2O` [Estriol] has an inhibition at 0.001 µg/mL (MPO [2]) of 15%.

In the case of `Nc1ccc2c(=O)[nH][nH]c(=O)c2c1` [Isoluminol, 6-amino-2,3-dihydro-1,4-phthallazinedione], the “S/N for Hb” value (Hb [1]) is reported as 3 and the “S/N for Mb” value (Mb) is reported as 5.

Molecule `CC(C(=O)O)c1cccc(C(=O)c2ccccc2)c1` (stereo not shown) [Ketoprofyn] has an inhibition at 100 mg/day (MPO [2]; read-out: % Inhibition of MPO) of 10%.

In the case of `Nc1cccc2c(=O)[nH][nH]c(=O)c12` [Luminol], the “S/N for Hb” value (Hb [1]) is reported as 89 and the “S/N for Mb” value (Mb) is reported as 73.

Work on `COc1ccc2cc([C@H](C)C(=O)O)ccc2c1` [Naprosyn] yielded an inhibition at 800 mg/day (MPO [2]; read-out: % Inhibition of MPO) of 5%.

`C[C@]12C=CC(=O)C=C1CC[C@@H]1[C@@H]2[C@@H](O)C[C@@]2(C)[C@H]1CC[C@]2(O)C(=O)CO` [Prednisolone] was tested, and the inhibition at 100 µg/mL (MPO [2]; read-out: % Inhibition of MPO) was 13%.

`[N-]=[N+]=[N-]` [Sodium Azide, sodium azide] was tested, and the “Level of Interference (in words)” value (Hb [3]) was “None” and the “Level of Interference (in words)” value (Hb [3]; listed as sodium azide) was “did not interfere”.

In the case of `Cn1c(=O)c2[nH]cnc2n(C)c1=O` [Theophyllin], the “% Inhibition of MPO” value (MPO [2]; 100 μg/mL) is reported as 11%.

With `Cc1c(C)c2c(c(C)c1O)CCC(C)(C(=O)O)O2` (stereo not shown) [Trolox] the “Interference (in words)” value (MPO [4]) was “None” and the “Interference (in words)” value (MPO [4]; listed as trolox) was “did not affect assay performance”.

With `O=c1[nH]c(=O)c2[nH]c(=O)[nH]c2[nH]1` [Uric Acid, uric acid] the “Level of Interference (in words)” value (Hb [3]) was “None”, the “Level of Interference (in words)” value (Hb [3]; listed as Uric acid) was “did not interfere” and the “Interference (in words)” value (MPO [4]) was “None”. The “Interference (in words)” value (MPO [4]; listed as uric acid) was “did not affect assay performance”.

For Catalase, the “Level of Interference (in words)” value (Hb [3]) was “only interfere at very high concentrations” and the “Level of Interference” value (Hb [3]) was over 7.8 µg/mL.

In the case of “Eosinophil peroxidase: Eosinophil peroxidase was provided by Dr. Greipp (Mayo Clinic)”, the “Level of Interference (in words)” value (Hb [3]) is reported as “only interfere at very high concentrations” and the “Level of Interference” value (Hb [3]) is reported as over 0.007 µg/mL.

For Superoxide dismutase, the “Level of Interference” value (Hb [3]) was over 125 µg/mL.
